What was measured:
Experiment in all cases: Test D controlled growth environment herbicide test, pre- and postemergence
Assay type in all cases: in vivo
[1] = tested on: blackgrass (Alopecurus myosuroides)
Excerpt: (§1) Seeds of plant species selected from bluegrass (annual bluegrass, Poa annua), blackgrass (Alopecurus myosuroides), Canada thistle (Cirsium arvense), canarygrass (Phalaris minor), chickweed (common chickweed, Stellaria media), geranium, cutleaf (cutleaf geranium, Geranium dissectum), galium (catchweed bedstraw, Galium aparine), bromegrass, downy (downy bromegrass, Bromus tectorum), field poppy (Papaver rhoeas), field violet (Viola arvensis), foxtail, green (green foxtail, Setaria viridis), deadnettle (henbit deadnettle, Lamium amplexicaule), ryegrass, Italian (Italian ryegrass, Lolium multiflorum), kochia (Kochia scoparia), lambsquarters (Chenopodium album), oilseed rape (Brassica napus), pigweed (Amaranthus retroflexus), chamomile (scentless chamomile, Matricaria inodora), Russian thistle (Salsola kali), speedwell (bird's-eye speedwell, Veronica persica), barley, spring (spring barley, Hordeum vulgare), wheat, spring (spring wheat, Triticum aestivum), buckwheat, wild (wild buckwheat, Polygonum convolvulus), mustard, wild (wild mustard, Sinapis arvensis), oat, wild (wild oat, Avena fatua), radish, wild (wild radish, Raphanus raphanistrum), windgrass (Apera spica-venti), barley, winter (winter barley, Hordeum vulgare), and wheat, winter (winter wheat, Triticum aestivum) were planted into a silt loam soil and treated preemergence with test chemicals formulated in a non-phytotoxic solvent mixture which included a surfactant.
(§2) At the same time, these species were planted in pots containing Redi-Earth® planting medium (Scotts Company, 14111 Scottslawn Road, Marysville, Ohio 43041) comprising spaghnum peat moss, vermiculite, wetting agent and starter nutrients and treated with postemergence applications of the test chemicals formulated in the same manner. Plants ranged in height from 2 to 18 cm (1- to 4-leaf stage). Treated plants and controls were maintained in a controlled growth environment for 14 to 21 d after which time all species were compared to controls and visually evaluated. Plant response ratings, summarized in Table D, are based on a scale of 0 to 100 where 0 is no effect and 100 is complete control. A dash (-) response means no test result.

[2] = tested on: bromegrass, downy (downy bromegrass, Bromus tectorum)
Excerpt: as §1, §2

[3] = tested on: chickweed (common chickweed, Stellaria media)
Excerpt: as §1, §2

[4] = tested on: deadnettle (henbit deadnettle, Lamium amplexicaule)
Excerpt: as §1, §2

[5] = tested on: foxtail, green (green foxtail, Setaria viridis)
Excerpt: as §1, §2

[6] = tested on: mustard, wild (wild mustard, Sinapis arvensis)
Excerpt: as §1, §2

[7] = tested on: oat, wild (wild oat, Avena fatua)
Excerpt: as §1, §2

[8] = tested on: oilseed rape (Brassica napus)
Excerpt: as §1, §2

[9] = tested on: ryegrass, Italian (Italian ryegrass, Lolium multiflorum)
Excerpt: as §1, §2

[10] = tested on: speedwell (bird's-eye speedwell, Veronica persica)
Excerpt: as §1, §2

[11] = tested on: wheat, spring (spring wheat, Triticum aestivum)
Excerpt: as §1, §2

[12] = tested on: wheat, winter (winter wheat, Triticum aestivum)
Excerpt: as §1, §2

[13] = Postemergence, 31 g ai/ha, scale 0 to 100 (0 no effect, 100 complete control)
[14] = Postemergence, 125 g ai/ha, visual rating on scale 0 (no effect) to 100 (complete control), 14 to 21 d
[15] = Postemergence, 250 g ai/ha, scale 0 to 100 (0 no effect, 100 complete control)
[16] = Preemergence, 62 g ai/ha, scale 0 to 100 (0 no effect, 100 complete control)
[17] = Preemergence, 125 g ai/ha, scale 0 to 100 (0 no effect, 100 complete control)
[18] = Preemergence, 250 g ai/ha, scale 0 to 100, 0 no effect, 100 complete control
[19] = postemergence, 62 g ai/ha, scale 0 to 100, 0 no effect, 100 complete control

Cc1cc(C)c2sc(C)c(-c3c(O)c(C)nn(C)c3=O)c2c1 [Compound 2, 5-hydroxy-2,6-dimethyl-4-(2,5,7-trimethylbenzo[b]thien-3-yl)-3(2H)-pyridazinone]
Blackgrass plant response rating [1, 13]: 65 | Plant response rating, Blackgrass [1, 14]: 80 | Plant response rating, Blackgrass [1, 15]: 90 | Plant response rating (scale of 0 to 100), Blackgrass ([1]; Preemergence, 31 g ai/ha): 65 | Plant response rating, Blackgrass [1, 16]: 75 | Plant response rating, Blackgrass [1, 17]: 85 | Blackgrass plant response rating [1, 18]: 90 | Plant response rating, Blackgrass [1, 19]: 70 | Bromegrass, Downy plant response rating [2, 13]: 10 | Plant response rating, Bromegrass, Downy [2, 14]: 10 | Plant response rating, Bromegrass, Downy [2, 15]: 20 | Plant response rating (scale of 0 to 100), Bromegrass, Downy ([2]; Preemergence, 31 g ai/ha): 10 | Plant response rating, Bromegrass, Downy [2, 16]: 50 | Plant response rating, Bromegrass, Downy [2, 17]: 65 | Plant response rating, Bromegrass, Downy [2, 18]: 70 | Plant response rating, Bromegrass, Downy [2, 19]: 10 | Chickweed plant response rating [3, 13]: 85 | Plant response rating, Chickweed [3, 14]: 100 | Plant response rating, Chickweed [3, 15]: 100 | Plant response rating (scale of 0 to 100), Chickweed ([3]; Preemergence, 31 g ai/ha): 90 | Plant response rating, Chickweed [3, 16]: 100 | Plant response rating, Chickweed [3, 17]: 100 | Plant response rating, Chickweed [3, 18]: 100 | Plant response rating, Chickweed [3, 19]: 95 | Deadnettle plant response rating [4, 13]: 60 | Plant response rating, Deadnettle [4, 14]: 60 | Plant response rating, Deadnettle [4, 15]: 60 | Plant response rating (scale of 0 to 100), Deadnettle ([4]; Preemergence, 31 g ai/ha): 0 | Plant response rating, Deadnettle [4, 16]: 0 | Plant response rating, Deadnettle [4, 17]: 0 | Plant response rating, Deadnettle [4, 18]: 55 | Plant response rating, Deadnettle [4, 19]: 60 | Foxtail, Green plant response rating [5, 13]: 70 | Plant response rating, Foxtail, Green [5, 14]: 95 | Plant response rating, Foxtail, Green [5, 15]: 100 | Plant response rating (scale of 0 to 100), Foxtail, Green ([5]; Preemergence, 31 g ai/ha): 65 | Plant response rating, Foxtail, Green [5, 16]: 100 | Plant response rating, Foxtail, Green [5, 17]: 100 | Plant response rating, Foxtail, Green [5, 18]: 100 | Plant response rating, Foxtail, Green [5, 19]: 80 | Mustard, Wild plant response rating [6, 13]: 25 | Plant response rating, Mustard, Wild [6, 14]: 40 | Plant response rating, Mustard, Wild [6, 15]: 55 | Plant response rating (scale of 0 to 100), Mustard, Wild ([6]; Preemergence, 31 g ai/ha): 0 | Plant response rating, Mustard, Wild [6, 16]: 0 | Plant response rating, Mustard, Wild [6, 17]: 5 | Plant response rating, Mustard, Wild [6, 18]: 40 | Plant response rating, Mustard, Wild [6, 19]: 35 | Oat, Wild plant response rating [7, 13]: 55 | Plant response rating, Oat, Wild [7, 14]: 90 | Plant response rating, Oat, Wild [7, 15]: 100 | Plant response rating (scale of 0 to 100), Oat, Wild ([7]; Preemergence, 31 g ai/ha): 80 | Plant response rating, Oat, Wild [7, 16]: 90 | Plant response rating, Oat, Wild [7, 17]: 95 | Plant response rating, Oat, Wild [7, 18]: 100 | Plant response rating, Oat, Wild [7, 19]: 80 | Oilseed Rape plant response rating [8, 13]: 20 | Plant response rating, Oilseed Rape [8, 14]: 55 | Plant response rating, Oilseed Rape [8, 15]: 70 | Plant response rating (scale of 0 to 100), Oilseed Rape ([8]; Preemergence, 31 g ai/ha): 0 | Plant response rating, Oilseed Rape [8, 16]: 0 | Plant response rating, Oilseed Rape [8, 17]: 20 | Plant response rating, Oilseed Rape [8, 18]: 40 | Plant response rating, Oilseed Rape [8, 19]: 45 | Ryegrass, Italian plant response rating [9, 13]: 70 | Plant response rating, Ryegrass, Italian [9, 14]: 85 | Plant response rating, Ryegrass, Italian [9, 15]: 90 | Plant response rating (scale of 0 to 100), Ryegrass, Italian ([9]; Preemergence, 31 g ai/ha): 85 | Plant response rating, Ryegrass, Italian [9, 16]: 95 | Plant response rating, Ryegrass, Italian [9, 17]: 100 | Plant response rating, Ryegrass, Italian [9, 18]: 100 | Plant response rating, Ryegrass, Italian [9, 19]: 80 | Speedwell plant response rating [10, 13]: 50 | Plant response rating, Speedwell [10, 14]: 80 | Plant response rating, Speedwell [10, 15]: 90 | Plant response rating (scale of 0 to 100), Speedwell ([10]; Preemergence, 31 g ai/ha): 55 | Plant response rating, Speedwell [10, 17]: 90 | Plant response rating, Speedwell [10, 18]: 100 | Plant response rating, Speedwell [10, 19]: 65 | Wheat, Spring plant response rating [11, 13]: 0 | Plant response rating, Wheat, Spring [11, 14]: 10 | Plant response rating, Wheat, Spring [11, 15]: 25 | Plant response rating (scale of 0 to 100), Wheat, Spring ([11]; Preemergence, 31 g ai/ha): 0 | Plant response rating, Wheat, Spring [11, 16]: 0 | Plant response rating, Wheat, Spring [11, 17]: 5 | Plant response rating, Wheat, Spring [11, 18]: 10 | Plant response rating, Wheat, Spring [11, 19]: 0 | Wheat, Winter plant response rating [12, 13]: 0 | Plant response rating, Wheat, Winter [12, 14]: 5 | Plant response rating, Wheat, Winter [12, 15]: 10 | Plant response rating (scale of 0 to 100), Wheat, Winter ([12]; Preemergence, 31 g ai/ha): 0 | Plant response rating, Wheat, Winter [12, 16]: 0 | Plant response rating, Wheat, Winter [12, 17]: 0 | Plant response rating, Wheat, Winter [12, 18]: 5 | Plant response rating, Wheat, Winter [12, 19]: 0
